Test results published in paper PMC7559245 (iScience, 2020).

Test system: Kv2.1 channel
Test: whole-cell patch clamp in CHO-Kv2.[…] cells
Format: cell-based

IC50: 9.53 µM
SMILES: CCN(CC)CCOC(=O)C(c1ccccc1)C1CCCCC1 (stereo not shown) [Dfe, drofenine]
